US6605595B1, “Avermectin derivatives” (The Kitasato Institute, priority 1999, dated 2003)

Legend:
[1] = test system: Third larval stages of Periplaneta americana; experiment: Test on cockroaches, immersion process; type: in vivo; details: immersion 60 seconds, time of reading not stated (2 and 24 hours, 7 days)
Method: Test on cockroached—Immersion process
Test animals: Third larval stages of Periplaneta americana
(§1) Solvent: Dimethylsulfoxide
20 mg of active compound are dissolved in one ml of dimethylsulfoxide. In order to prepare a suitable formulation the solution of active compound is diluted with water to the concentration required in each case.
20 ml of this preparation of active compound are pipetted into tubes (of a diameter of 1.5 cm and a height of 10 cm). 4 cockroach larvae are intoxicated with CO2 and transferred to a tube (of a diameter of 1.2 cm and a height of 9 cm) containing 3 holes (in the base and 5 cm below the upper rim). The tube is sealed with a stopper and kept at room temperature for 30 minutes until all of the cockroach larvae again display normal activity. The tube is immersed in the active compound formulation for 60 seconds, during which period all of the cockroach larvae are completely coverd. After the liquid has drained off the cockroach larvae are transferred to filter discs in cans made of PP (of a diameter of 9.7 cm and a height of 8 cm height).
After 2 and 24 hours and after 7 days the activity of the active compound formulation is determined. 100% means that all of the cockroach larvae have been destroyed; 0% means that none of the cockroach larvae have been destroyed.

Caenorhabditis elegans = experiment: Antiparasitic activity against Caenorhabditis elegans, 96 well microplate (MIC); type: in vivo; details: 20° C., observed after 24 and 48 hours
Excerpt: (§2) As model insects for simple determination of antiparasitic and insecticidal activities, those insects are desired which can be easily obtained and bred in laboratories, and have no pathogenicity to a human. Caenorhabditis elegans, an unparasitic eelworm widely used in experiments of genetics, was used as a typical steam worm, and Artemia salina used as feed for tropical fish and named Brine shrimp, was used instead of insects.
Escherichia. coli for the feed of Caenorhabditis elegans (mutant having uracil requirement) was inoculated in a seed medium for E. coli to which a small amount of uracil was added, and cultured with shaking at 27° C. for 1 day. A petri dish of 6 cm diameter was filled with 10 ml of an agar medium for eelworm proliferation, and the medium was solidified. Then 0.5 ml of the culture of E. coli was spread over the medium in the dish, and the dish was incubated at 37° C. to proliferate E. coli. A piece of the agar was collected with a platinum loop from a petri dish in which Caenorhabditis elegans successfully proliferated, and inoculated in petri dishes in which E. coli was proliferated. The petri dishes were incubated at 20° C. to proliferate Caenorhabditis elegans. Since the life of eelworm is about 2 weeks, subculture was carried out every once a week. The eelworms grown with spread on the surface of the petri dish after 3 to 5 days from subculture were used for the experiments.
The agar medium for eelworm proliferation was prepared by mixing the solutions in the following proportion: Solution A: 100 ml, Solution B: 0.1 ml, Solution C: 0.05 ml, Solution D: 0.1 ml and Solution E: 2.5 ml (without pH adjustment), and dispensing each 10 ml portion into petri dishes of 60×15 mm.
In distilled water, 2.0% of bact-trypton (DIFCO Co.), 0.55% of sodium chloride and 0.001% of uracil (SIGMA Co., pH 7.4) were dissolved, and the solution was sterilized in an autoclave at 121° C. for 20 minutes.
(§3) Each well of a 96 well microplate was filled with the solution of the test compound (methanol as a solvent), and the solvent was removed using a vacuum pump, then 250 μl of the assay medium was added to each wells (the assay medium was prepared by dissolving 7.5 mM sodium hydrogencarbonate, 7.5 mM potassium chloride, 7.5 mM calcium chloride dihydrate and 7.5 mM magnesium sulfate heptahydrate in distilled water and adding 0.01% of lecithin thereto), and then the microplate was shaken using a microplate mixer for 15 minutes. To each well, a few individuals of Caenorhabditis elegans were added by softly rubbing the surface of the agar using a toothpick, or a few individuals of Artemia salina were added together with 50 μl of the buffer. The microplate was incubated at 20° C., and then the insects were observed after 24 and 48 hours under a microscope (magnification of 40×). The results were compared to those obtained without addition of the test compound, and evaluated by 4 grades.
(§4) The evaluation results were shown by indications of 4 grades from 0 to 3.
(§5) 1: A little week movements
(§6) Of the 4 grades, Indications 3 and 2 were judged as effective, and Indications 1 and 0 as ineffective. In Table 9, the values for each compound are minimum inhibitory concentrations (MIC) which were required to give Indication 2 (or 3) for Caenorhabditis elegans or Artemia salina. In Table 9, Caenorhabditis elegans and Artemia salina are abbreviated as C.E. and A.S., respectively.

Artemia salina = experiment: Insecticidal model activity against Artemia salina (brine shrimp), 96 well microplate (MIC); type: in vivo; details: 20° C., observed after 24 and 48 hours
Excerpt: as §2
To a buffer for Artemia salina (obtained by dissolving 0.24% of Tris, 2.57% of sodium chloride, 0.47% of magnesium chloride, 0.07% of potassium chloride, 0.02% of sodium carbonate, 0.64% of magnesium sulfate and 0.11% of calcium chloride in distilled water and adjusting the pH to 7.1 with hydrochloric acid), dried eggs of Artemia salina [Tetra Brine Shrimp Eggs, Warner Lambert Co.] were added. The noprius larvae 1 or 2 days after hatching were used for the experiments.
as §3, §4, §5, §6

Lucilia cuprina larvae = experiment: Blowfly larvae test / development-inhibiting activity; type: in vivo
Method: Blowfly larvae test/Development-inhibiting activity
Test animals: Lucilia cuprina larvae
as §1
20 mg of active compound are dissolved in one ml of dimethylsulfoxide. In order to prepare a suitable formulation the active compound solution is diluted with water to the concentration required in each case.
Approx. 20 Lucilia cuprina larvae are introduced into a test tube containing approx. 1 cm^3 of horse-meat and 0.5 ml of the active compound preparation to be tested. After 48 hours the activity of the active compound preparation is determined. The test tubes are transferred to beakers with a sand-covered base. After a further 2 days the test tubes are removed and the pupae counted.
The activity of the active compound preparation is assessed according to the number of flies which have hatched after 1.5 times the development period of an untreated control. 100% means that no flies have hatched: 0% means that all of the flies have hatched normally.

[2] = test system: Adult Ctenocephalides felis; experiment: Test on cat fleas / oral absorption; type: in vivo; details: after 24 hours
Method: Test on cat fleas/oral absorption
Test animals: Adult Ctenocephalides felis
Solvent: Dimethylsulfoxide (DMSO)
20 μl of this formulation are added to 4 ml of citrated cow's blood and stirred.
20 starved adult fleas (of “Georgi” species of Ctenocephalides felis) are introduced into a chamber (of a diameter of 5 cm) which is sealed with gauze at the top and bottom. A metal cylinder, whose base is sealed with parafilm, is placed on the chamber. […] Whereas the blood is heated to 37° C. a temperature of 25° C. is adjusted in the region of the flea chambers. Controls are mixed with the same volume of DMSO without the addition of any of the compounds. The test are repeated three times.
After 24 hours the mortality is determined in %.

Heterakis spumosa = experiment: In vivo experiments with Heterakis spumosa in mice; design: key: 3 represents cure (no parasites detectable); 2 effective (<20% of parasites remaining); 1 trace effect (< of parasites remaining); 0 ineffective (>50% of parasites remaining); details: orally 4 times, mice infected with H. spumosa
Method: In vivo experiments with Heterakis spumosa
For the experiments male mice (strain Bor CFW, 25-30 g of body weight on receipt) were housed in Macrolon cages (3 mice per cage) and provided with water and SNIFF rat feed (10-mm pellets) ad libitum. Mice were infected with H. spumosa by oral application of 90 embryonated eggs. The eggs were obtained from female Heterakis. isolated from mouse colon 40 days after infection followed by additional three weeks incubation at 37° C. The mice were treated orally 4 times with the compounds at the dosages of 1, 0.5, 0.25, 0.1, 0.05 and 0.025 mg/kg between days 46 and 49 after infection. Compounds were suspended in Cremophor EL. Infected control mice served as untreated controls which only received Cremophor EL. Mice were killed eight days after treatment (i.e. on day 57 after infection) with carbon dioxide and cecum and colon were dissected. The number of worms which have resided in the cecum and colon were counted macroscopically. The ratios of the number of expelled worms in percent of the total number of worms was defined as level of the anthelmintic activity. Activity was evaluated on a scale 0-3 where 3 represents cure (no parasites detectable), 2 effective (<20% of parasites remaining), 1 trace effect (< of parasites remaining) and 0 ineffective (>50% of parasites remaining).

[3] = 100 ppm in citrated cow's blood

SMILES	activity (100% = all of the cockroach larvae destroyed) ([1]; 1 ppm)	activity (100% = all of the cockroach larvae destroyed) ([1]; 10 ppm)	activity (100% = all of the cockroach larvae destroyed) ([1]; 100 ppm)	C.E. minimum inhibitory concentration (MIC) required to give Indication 2 (or 3) (Caenorhabditis elegans)	A.S. minimum inhibitory concentration (MIC) required to give Indication 2 (or 3) (Artemia salina)	development-inhibiting activity (100% = no flies have hatched) (Lucilia cuprina larvae; 1 ppm)	development-inhibiting activity (100% = no flies have hatched) (Lucilia cuprina larvae; 10 ppm)	development-inhibiting activity (100% = no flies have hatched) (Lucilia cuprina larvae; 100 ppm)	mortality of fleas ([2]; 10 ppm in citrated cow's blood)	mortality of fleas [2, 3]	anthelmintic activity score (scale 0-3) (Heterakis spumosa; 0.05 mg/kg)	anthelmintic activity score (scale 0-3) (Heterakis spumosa; 0.1 mg/kg)	anthelmintic activity score (scale 0-3) (Heterakis spumosa; 0.25 mg/kg)	anthelmintic activity score (scale 0-3) (Heterakis spumosa; 0.5 mg/kg)	anthelmintic activity score (scale 0-3) (Heterakis spumosa; 1 mg/kg)
CCC(C)C1OC2(CC3CC(CC=C(C)C(OC4CC(OC)C(OC5CC(OC)C(=CC(=O)OC)C(C)O5)C(C)O4)C(C)C=CC=C4COC5C(O)C(C)=CC(C(=O)O3)C45O)O2)CC(O)C1C (stereo not shown) [Compound 78]	50%	50%	100%												
CCC(C)C1OC2(C=CC1C)CC1CC(CC=C(C)C(OC3CC(OC)C(OC4CC(OC)C(=CC(=O)OC)C(C)O4)C(C)O3)C(C)C=CC=C3COC4C(O)C(C)=CC(C(=O)O1)C34O)O2 (stereo not shown) [Compound 7]				0.01 µg/mL	0.002 µg/mL	100%	100%	100%	61%	99%					
CCOC(=O)C=C1C(C)OC(OC2C(C)OC(OC3C(C)=CCC4CC(CC5(C=CC(C)C(C(C)CC)O5)O4)OC(=O)C4C=C(C)C(O)C5OCC(=CC=CC3C)C45O)CC2OC)CC1OC (stereo not shown) [Compound 2]				0.01 µg/mL	0.01 µg/mL				50%	100%	2 (2 effective (<20% of parasites remaining))	3	3	3	3
CCC(C)C1OC2(C=CC1C)CC1CC(CC=C(C)C(OC3CC(OC)C(OC4CC(OC)C(=CCOC5CCCCO5)C(C)O4)C(C)O3)C(C)C=CC=C3COC4C(O)C(C)=CC(C(=O)O1)C34O)O2 (stereo not shown) [Compound 31]				0.05 µg/mL	0.01 µg/mL							2 (2 effective (<20% of parasites remaining))	2 (2 effective (<20% of parasites remaining))	3	3
CCC(C)C1OC2(C=CC1C)CC1CC(CC=C(C)C(OC3CC(OC)C(OC4CC(OC)C(=CCOC(=O)c5cccnc5)C(C)O4)C(C)O3)C(C)C=CC=C3COC4C(O)C(C)=CC(C(=O)O1)C34O)O2 (stereo not shown) [Compound 21]				0.01 µg/mL	0.002 µg/mL	100%	100%	100%							
CCC(C)C1OC2(C=CC1C)CC1CC(CC=C(C)C(OC3CC(OC)C(OC4CC(OC)C(=CC=CC(=O)O)C(C)O4)C(C)O3)C(C)C=CC=C3COC4C(O)C(C)=CC(C(=O)O1)C34O)O2 (stereo not shown) [Compound 66]	75%	100%	100%												
CCC(C)C1OC2(C=CC1C)CC1CC(CC=C(C)C(OC3CC(OC)C(OC4CC(OC)C(=CCO)C(C)O4)C(C)O3)C(C)C=CC=C3COC4C(O)C(C)=CC(C(=O)O1)C34O)O2 (stereo not shown) [Compound 4]				0.01 µg/mL	0.01 µg/mL				42%	100%					
